# Legend:
# healthy human volunteers [1] = assay: Phase Ia Study in Healthy Volunteers; format: in vivo; conditions: for Change from Baseline for Lean Muscle, Comparison to Placebo Difference / Change from Baseline for Lean Muscle, LS Mean: Day 28
# healthy human volunteers [2] = assay: Phase Ib Study of Healthy Volunteers; format: in vivo; conditions: males, 1 mg, day 14
structure (smiles),measurement,setting,value
"CC(C)OC(=O)N[C@H]1Cc2c(n(Cc3ccccn3)c3ccc(C#N)cc23)C1 (single isomer, unassigned) [Example 1]",changes from baseline in prostate-specific antigen levels compared with placebo,healthy human volunteers [1]; any time point or any dose,no significant changes
same,"Change from Baseline for Lean Muscle, Comparison to Placebo Difference","healthy human volunteers [1]; females, 5 mg",2298.22 g
same,"Change from Baseline for Lean Muscle, LS Mean","healthy human volunteers [1]; females, 5 mg",1555.95 g
same,"Change from Baseline for Lean Muscle, Comparison to Placebo Difference","healthy human volunteers [1]; females, 15 mg",3661.85 g
same,"Change from Baseline for Lean Muscle, LS Mean","healthy human volunteers [1]; females, 15 mg",2919.58 g
same,"Change from Baseline for Lean Muscle, Comparison to Placebo Difference","healthy human volunteers [1]; females, 25 mg",2224.51 g
same,"Change from Baseline for Lean Muscle, LS Mean","healthy human volunteers [1]; females, 25 mg",1482.24 g
same,"Change from Baseline for Lean Muscle, Comparison to Placebo Difference","healthy human volunteers [1]; females, 75 mg",2325.92 g
same,"Change from Baseline for Lean Muscle, LS Mean","healthy human volunteers [1]; females, 75 mg",1583.65 g
same,"Change from Baseline for Lean Muscle, Comparison to Placebo Difference","healthy human volunteers [1]; males, 1 mg",1548.97 g
same,"Change from Baseline for Lean Muscle, LS Mean","healthy human volunteers [1]; males, 1 mg",675.52 g
same,"Change from Baseline for Prostate Specific Antigen, Comparison to Placebo Difference","healthy human volunteers [1]; males, 1 mg, day 14",-0.10 µg/L
same,"Change from Baseline for Prostate Specific Antigen, LS Mean","healthy human volunteers [1]; males, 1 mg, day 14",-0.06 µg/L
same,"Change from Baseline for Prostate Specific Antigen, Comparison to Placebo Difference","healthy human volunteers [1]; males, 1 mg, day 28",-0.09 µg/L
same,"Change from Baseline for Prostate Specific Antigen, LS Mean","healthy human volunteers [1]; males, 1 mg, day 28",-0.05 µg/L
same,"Change from Baseline for Prostate Specific Antigen, Comparison to Placebo Difference","healthy human volunteers [1]; males, 1 mg, day 35",-0.01 µg/L
same,"Change from Baseline for Prostate Specific Antigen, LS Mean","healthy human volunteers [1]; males, 1 mg, day 35",0.02 µg/L
same,"Change from Baseline for Lean Muscle, Comparison to Placebo Difference","healthy human volunteers [1]; males, 5 mg",1461.11 g
same,"Change from Baseline for Lean Muscle, LS Mean","healthy human volunteers [1]; males, 5 mg",587.66 g
same,"Change from Baseline for Prostate Specific Antigen, Comparison to Placebo Difference","healthy human volunteers [1]; males, 5 mg, day 14",0.16 µg/L
same,"Change from Baseline for Prostate Specific Antigen, LS Mean","healthy human volunteers [1]; males, 5 mg, day 14",0.20 µg/L
same,"Change from Baseline for Prostate Specific Antigen, Comparison to Placebo Difference","healthy human volunteers [1]; males, 5 mg, day 28",-0.05 µg/L
same,"Change from Baseline for Prostate Specific Antigen, LS Mean","healthy human volunteers [1]; males, 5 mg, day 28",-0.00 µg/L
same,"Change from Baseline for Prostate Specific Antigen, Comparison to Placebo Difference","healthy human volunteers [1]; males, 5 mg, day 35",0.17 µg/L
same,"Change from Baseline for Prostate Specific Antigen, LS Mean","healthy human volunteers [1]; males, 5 mg, day 35",0.20 µg/L
same,"Change from Baseline for Lean Muscle, Comparison to Placebo Difference","healthy human volunteers [1]; males, 15 mg",3202.54 g
same,"Change from Baseline for Lean Muscle, LS Mean","healthy human volunteers [1]; males, 15 mg",2329.08 g
same,"Change from Baseline for Prostate Specific Antigen, Comparison to Placebo Difference","healthy human volunteers [1]; males, 15 mg, day 14",-0.16 µg/L
same,"Change from Baseline for Prostate Specific Antigen, LS Mean","healthy human volunteers [1]; males, 15 mg, day 14",-0.11 µg/L
same,"Change from Baseline for Prostate Specific Antigen, Comparison to Placebo Difference","healthy human volunteers [1]; males, 15 mg, day 28",-0.31 µg/L
same,"Change from Baseline for Prostate Specific Antigen, LS Mean","healthy human volunteers [1]; males, 15 mg, day 28",-0.27 µg/L
same,"Change from Baseline for Prostate Specific Antigen, Comparison to Placebo Difference","healthy human volunteers [1]; males, 15 mg, day 35",0.22 µg/L
same,"Change from Baseline for Prostate Specific Antigen, LS Mean","healthy human volunteers [1]; males, 15 mg, day 35",0.25 µg/L
same,"Change from Baseline for Lean Muscle, Comparison to Placebo Difference","healthy human volunteers [1]; males, 25 mg",1829.63 g
same,"Change from Baseline for Lean Muscle, LS Mean","healthy human volunteers [1]; males, 25 mg",956.18 g
same,"Change from Baseline for Prostate Specific Antigen, Comparison to Placebo Difference","healthy human volunteers [1]; males, 25 mg, day 14",-0.19 µg/L
same,"Change from Baseline for Prostate Specific Antigen, LS Mean","healthy human volunteers [1]; males, 25 mg, day 14",-0.15 µg/L
same,"Change from Baseline for Prostate Specific Antigen, Comparison to Placebo Difference","healthy human volunteers [1]; males, 25 mg, day 28",-0.27 µg/L
same,"Change from Baseline for Prostate Specific Antigen, LS Mean","healthy human volunteers [1]; males, 25 mg, day 28",-0.22 µg/L
same,"Change from Baseline for Prostate Specific Antigen, Comparison to Placebo Difference","healthy human volunteers [1]; males, 25 mg, day 35",-0.17 µg/L
same,"Change from Baseline for Prostate Specific Antigen, LS Mean","healthy human volunteers [1]; males, 25 mg, day 35",-0.14 µg/L
same,"Change from Baseline for Lean Muscle, Comparison to Placebo Difference","healthy human volunteers [1]; males, 75 mg",-683.76 g
same,"Change from Baseline for Lean Muscle, LS Mean","healthy human volunteers [1]; males, 75 mg",-1557.21 g
same,"Change from Baseline for Prostate Specific Antigen, Comparison to Placebo Difference","healthy human volunteers [1]; males, 75 mg, day 14",-0.17 µg/L
same,"Change from Baseline for Prostate Specific Antigen, LS Mean","healthy human volunteers [1]; males, 75 mg, day 14",-0.13 µg/L
same,"Change from Baseline for Prostate Specific Antigen, Comparison to Placebo Difference","healthy human volunteers [1]; males, 75 mg, day 28",0.03 µg/L
same,"Change from Baseline for Prostate Specific Antigen, LS Mean","healthy human volunteers [1]; males, 75 mg, day 28",0.07 µg/L
same,"Change from Baseline for Prostate Specific Antigen, Comparison to Placebo Difference","healthy human volunteers [1]; males, 75 mg, day 35",0.00 µg/L
same,"Change from Baseline for Prostate Specific Antigen, LS Mean","healthy human volunteers [1]; males, 75 mg, day 35",0.03 µg/L
same,"Change from Baseline for P1NP, Comparison to Placebo Difference",healthy human volunteers [2],-2.40 µg/L
same,"Change from Baseline for Procollagen Type I N Propeptide (P1NP), LS Mean",healthy human volunteers [2],-3.55 µg/L
